Results: PubChem BioAssay (NCI)
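How tested: cells in 96-well plates exposed to compound for 48 hours at five concentrations. TGI denotes the concentration required for complete inhibition of growth.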

What was measured:
Test in all cases: growth of human tumour cells (NCI), 48 h
NCI-H23 lung = test system: NCI-H23 lung
MALME-3M melanoma = test system: MALME-3M melanoma
SN12C renal = test system: SN12C renal
UO-31 renal = test system: UO-31 renal
CAKI-1 renal = test system: CAKI-1 renal
IGROV1 ovarian = test system: IGROV1 ovarian
TK-10 renal = test system: TK-10 renal
HL-60(TB) leukemia = test system: HL-60(TB) leukemia
786-0 renal = test system: 786-0 renal
SK-MEL-28 melanoma = test system: SK-MEL-28 melanoma
MCF7 breast = test system: MCF7 breast
SNB-19 CNS = test system: SNB-19 CNS
HCC-2998 colon = test system: HCC-2998 colon
RXF 393 renal = test system: RXF 393 renal
K-562 leukemia = test system: K-562 leukemia
U251 CNS = test system: U251 CNS
MDA-MB-231 breast = test system: MDA-MB-231 breast
NCI-H460 lung = test system: NCI-H460 lung
HCT-116 colon = test system: HCT-116 colon
OVCAR-4 ovarian = test system: OVCAR-4 ovarian
SW-620 colon = test system: SW-620 colon
HOP-62 NSCLC = test system: HOP-62 NSCLC
SF-268 CNS = test system: SF-268 CNS
SK-MEL-5 melanoma = test system: SK-MEL-5 melanoma
NCI-H226 lung = test system: NCI-H226 lung
HOP-92 NSCLC = test system: HOP-92 NSCLC
CCRF-CEM leukemia = test system: CCRF-CEM leukemia
MDA-N = test system: MDA-N
UACC-257 melanoma = test system: UACC-257 melanoma
UACC-62 melanoma = test system: UACC-62 melanoma
M14 melanoma = test system: M14 melanoma
PC-3 prostate = test system: PC-3 prostate
NCI/ADR-RES ovarian = test system: NCI/ADR-RES ovarian
NCI-H522 lung = test system: NCI-H522 lung
SF-295 CNS = test system: SF-295 CNS
DU-145 prostate = test system: DU-145 prostate
OVCAR-5 ovarian = test system: OVCAR-5 ovarian
OVCAR-3 ovarian = test system: OVCAR-3 ovarian
OVCAR-8 ovarian = test system: OVCAR-8 ovarian
SNB-75 CNS = test system: SNB-75 CNS
ACHN renal = test system: ACHN renal
RPMI-8226 leukemia = test system: RPMI-8226 leukemia
T-47D breast = test system: T-47D breast
HS 578T breast = test system: HS 578T breast
KM12 colon = test system: KM12 colon
HT29 colon = test system: HT29 colon
MDA-MB-435 = test system: MDA-MB-435
HCT-15 colon = test system: HCT-15 colon
SR leukemia = test system: SR leukemia
A498 renal = test system: A498 renal
A549 NSCLC = test system: A549 NSCLC
LOX IMVI melanoma = test system: LOX IMVI melanoma
SK-MEL-2 melanoma = test system: SK-MEL-2 melanoma
SK-OV-3 ovarian = test system: SK-OV-3 ovarian
COLO 205 colon = test system: COLO 205 colon
BT-549 breast = test system: BT-549 breast
EKVX NSCLC = test system: EKVX NSCLC
SF-539 CNS = test system: SF-539 CNS
MOLT-4 leukemia = test system: MOLT-4 leukemia

COc1ccc(-c2cc(-c3ccccc3)nc(/N=C\c3ccccc3)n2)c(O)c1
TGI (NCI-H23 lung): > 100 µM | TGI (MALME-3M melanoma): > 100 µM | TGI (SN12C renal): > 100 µM | TGI (UO-31 renal): > 100 µM | TGI (CAKI-1 renal): 8.39 µM | TGI (IGROV1 ovarian): > 100 µM | TGI (TK-10 renal): > 100 µM | TGI (HL-60(TB) leukemia): > 35.4 µM | TGI (786-0 renal): > 100 µM | TGI (SK-MEL-28 melanoma): > 100 µM | TGI (MCF7 breast): > 100 µM | TGI (SNB-19 CNS): > 100 µM | TGI (HCC-2998 colon): > 100 µM | TGI (RXF 393 renal): > 100 µM | TGI (K-562 leukemia): > 100 µM | TGI (U251 CNS): > 100 µM | TGI (MDA-MB-231 breast): > 100 µM | TGI (NCI-H460 lung): > 100 µM | TGI (HCT-116 colon): > 100 µM | TGI (OVCAR-4 ovarian): > 100 µM | TGI (SW-620 colon): > 100 µM | TGI (HOP-62 NSCLC): > 100 µM | TGI (SF-268 CNS): > 100 µM | TGI (SK-MEL-5 melanoma): > 100 µM | TGI (NCI-H226 lung): > 100 µM | TGI (HOP-92 NSCLC): > 100 µM | TGI (CCRF-CEM leukemia): > 100 µM | TGI (MDA-N): > 100 µM | TGI (UACC-257 melanoma): > 100 µM | TGI (UACC-62 melanoma): > 100 µM | TGI (M14 melanoma): > 100 µM | TGI (PC-3 prostate): > 100 µM | TGI (NCI/ADR-RES ovarian): > 100 µM | TGI (NCI-H522 lung): > 100 µM | TGI (SF-295 CNS): > 100 µM | TGI (DU-145 prostate): > 100 µM | TGI (OVCAR-5 ovarian): > 100 µM | TGI (OVCAR-3 ovarian): > 100 µM | TGI (OVCAR-8 ovarian): > 100 µM | TGI (SNB-75 CNS): > 100 µM | TGI (ACHN renal): > 100 µM | TGI (RPMI-8226 leukemia): 5.71 µM | TGI (T-47D breast): > 100 µM | TGI (HS 578T breast): > 100 µM | TGI (KM12 colon): > 100 µM | TGI (HT29 colon): > 100 µM | TGI (MDA-MB-435): > 100 µM | TGI (HCT-15 colon): > 100 µM | TGI (SR leukemia): > 24.1 µM | TGI (A498 renal): > 100 µM | TGI (A549 NSCLC): > 100 µM | TGI (LOX IMVI melanoma): > 100 µM | TGI (SK-MEL-2 melanoma): > 100 µM | TGI (SK-OV-3 ovarian): > 100 µM | TGI (COLO 205 colon): > 100 µM | TGI (BT-549 breast): > 100 µM | TGI (EKVX NSCLC): > 100 µM | TGI (SF-539 CNS): > 100 µM | TGI (MOLT-4 leukemia): > 100 µM

CCOC(=O)/C=C(\C(=O)OCC)n1ccc(=O)n(Cc2cnnn2COCCOC(C)=O)c1=O
TGI (NCI-H23 lung): 33.1 µM | TGI (MALME-3M melanoma): 4.34 µM | TGI (SN12C renal): 36.2 µM | TGI (UO-31 renal): 30.5 µM | TGI (CAKI-1 renal): 7.62 µM | TGI (IGROV1 ovarian): 36.7 µM | TGI (TK-10 renal): 12.6 µM | TGI (HL-60(TB) leukemia): 2.04 µM | TGI (786-0 renal): 15.3 µM | TGI (SK-MEL-28 melanoma): 25.2 µM | TGI (MCF7 breast): 21.4 µM | TGI (SNB-19 CNS): > 66.4 µM | TGI (HCC-2998 colon): 33.4 µM | TGI (RXF 393 renal): 14.5 µM | TGI (K-562 leukemia): > 100 µM | TGI (U251 CNS): 32.6 µM | TGI (MDA-MB-231 breast): 35 µM | TGI (NCI-H460 lung): 34.1 µM | TGI (HCT-116 colon): 41.7 µM | TGI (OVCAR-4 ovarian): 54.8 µM | TGI (SW-620 colon): 5.93 µM | TGI (HOP-62 NSCLC): 38.5 µM | TGI (SF-268 CNS): 36.4 µM | TGI (SK-MEL-5 melanoma): 54.3 µM | TGI (NCI-H226 lung): 43.2 µM | TGI (HOP-92 NSCLC): 2.16 µM | TGI (CCRF-CEM leukemia): 4.53 µM | TGI (MDA-N): 33 µM | TGI (UACC-257 melanoma): 30.8 µM | TGI (UACC-62 melanoma): 31 µM | TGI (M14 melanoma): 31.7 µM | TGI (PC-3 prostate): 33.7 µM | TGI (NCI/ADR-RES ovarian): 58.7 µM | TGI (NCI-H522 lung): 3.53 µM | TGI (SF-295 CNS): > 66.6 µM | TGI (DU-145 prostate): 37.7 µM | TGI (OVCAR-5 ovarian): 32 µM | TGI (OVCAR-3 ovarian): 25.1 µM | TGI (OVCAR-8 ovarian): 27.3 µM | TGI (SNB-75 CNS): 40.1 µM | TGI (ACHN renal): 10.2 µM | TGI (RPMI-8226 leukemia): > 42 µM | TGI (T-47D breast): 27.5 µM | TGI (HS 578T breast): 61.6 µM | TGI (KM12 colon): 32.1 µM | TGI (HT29 colon): 28.1 µM | TGI (MDA-MB-435): 22.5 µM | TGI (HCT-15 colon): > 41.3 µM | TGI (SR leukemia): > 31.2 µM | TGI (A498 renal): 41.3 µM | TGI (A549 NSCLC): 43.4 µM | TGI (LOX IMVI melanoma): > 40.7 µM | TGI (SK-MEL-2 melanoma): 38.5 µM | TGI (SK-OV-3 ovarian): > 100 µM | TGI (COLO 205 colon): 4.36 µM | TGI (BT-549 breast): 22.3 µM | TGI (EKVX NSCLC): 32.6 µM | TGI (SF-539 CNS): 5.66 µM | TGI (MOLT-4 leukemia): 10.3 µM

Cc1c(-c2ccccc2)c(C#N)c2nnn(-c3ccc([N+](=O)[O-])cc3)c(=O)n12
TGI (NCI-H23 lung): 86.5 µM | TGI (MALME-3M melanoma): > 100 µM | TGI (SN12C renal): 69.2 µM | TGI (CAKI-1 renal): > 100 µM | TGI (IGROV1 ovarian): 25.3 µM | TGI (TK-10 renal): 90 µM | TGI (HL-60(TB) leukemia): 13.9 µM | TGI (786-0 renal): 18.4 µM | TGI (SK-MEL-28 melanoma): > 100 µM | TGI (MCF7 breast): 68.7 µM | TGI (HCC-2998 colon): > 100 µM | TGI (RXF 393 renal): 48.2 µM | TGI (K-562 leukemia): > 100 µM | TGI (U251 CNS): 21.5 µM | TGI (MDA-MB-231 breast): 27.2 µM | TGI (NCI-H460 lung): > 100 µM | TGI (HCT-116 colon): > 100 µM | TGI (OVCAR-4 ovarian): 38.2 µM | TGI (SW-620 colon): > 100 µM | TGI (HOP-62 NSCLC): 45 µM | TGI (SF-268 CNS): 45.3 µM | TGI (SK-MEL-5 melanoma): > 100 µM | TGI (NCI-H226 lung): 34 µM | TGI (HOP-92 NSCLC): 45.4 µM | TGI (CCRF-CEM leukemia): 58.2 µM | TGI (MDA-N): > 100 µM | TGI (UACC-257 melanoma): > 100 µM | TGI (UACC-62 melanoma): > 100 µM | TGI (PC-3 prostate): 9.54 µM | TGI (NCI/ADR-RES ovarian): 64.7 µM | TGI (NCI-H522 lung): 33 µM | TGI (SF-295 CNS): 74.9 µM | TGI (DU-145 prostate): 23.2 µM | TGI (OVCAR-5 ovarian): 95.4 µM | TGI (OVCAR-3 ovarian): 39.8 µM | TGI (OVCAR-8 ovarian): 23.6 µM | TGI (SNB-75 CNS): 44.1 µM | TGI (ACHN renal): > 100 µM | TGI (RPMI-8226 leukemia): > 100 µM | TGI (T-47D breast): > 100 µM | TGI (HS 578T breast): > 100 µM | TGI (KM12 colon): > 100 µM | TGI (HT29 colon): 75.3 µM | TGI (MDA-MB-435): > 100 µM | TGI (HCT-15 colon): > 100 µM | TGI (SR leukemia): > 100 µM | TGI (A498 renal): 49 µM | TGI (LOX IMVI melanoma): 42.8 µM | TGI (SK-MEL-2 melanoma): 28.6 µM | TGI (SK-OV-3 ovarian): > 100 µM | TGI (COLO 205 colon): 40.6 µM | TGI (BT-549 breast): 69.9 µM | TGI (EKVX NSCLC): 23.8 µM | TGI (SF-539 CNS): 27 µM
